According to PubChem BioAssay AID256 (DTP/NCI, 2004):
Several values for one entry are separate records, joined by “and”; a condition that tells them apart may be missing. Equal values may be shown once. Inconclusive results and toxic doses are left out. How the source made its calls: active means survival T/C of 150% or more; inactive means T/C below 125% in these data.

System: CD2F1 mice, L1210 leukemia ip, survival T/C
Experiment: NCI In Vivo Anticancer Drug Screen. Data for tumor model L1210 Leukemia (intraperitoneal) in CD2F1 (CDF1) mice
Conditions: higher = longer survival
In short: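 Activity against a transplanted murine tumor was judged by comparing the compound group with a vehicle group. The outcome in the treated animals was divided by that in the controls.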

[1] = endpoint: mean survival time, dose: 75.0 mg/kg/injection, schedule: Q01DX001 (ip), vehicle: saline with Tween-80
[2] = endpoint: mean survival time, dose: 100.0 mg/kg/injection, schedule: Q01DX009 (ip), vehicle: saline with Tween-80
[3] = endpoint: mean survival time, dose: 100.0 mg/kg/injection, schedule: Q04DX003 (ip), vehicle: saline with Tween-80
[4] = endpoint: mean survival time, dose: 150.0 mg/kg/injection, schedule: Q01DX001 (ip), vehicle: saline with Tween-80
[5] = endpoint: mean survival time, dose: 200.0 mg/kg/injection, schedule: Q01DX009 (ip), vehicle: saline with Tween-80
[6] = endpoint: mean survival time, dose: 400.0 mg/kg/injection, schedule: Q01DX009 (ip), vehicle: saline with Tween-80
[7] = endpoint: mean survival time, dose: 50.0 mg/kg/injection, schedule: Q01DX009 (ip), vehicle: saline with Tween-80
[8] = endpoint: mean survival time, dose: 200.0 mg/kg/injection, schedule: Q04DX003 (ip), vehicle: saline with Tween-80
[9] = endpoint: mean survival time, dose: 400.0 mg/kg/injection, schedule: Q04DX003 (ip), vehicle: saline with Tween-80

Measured: T/C

Nc1nc(N)c(N)c(N)n1
inactive: [1] 94 % of control | [2] 90 % of control | [3] 98 % of control | [4] 101 % of control | [5] 104 % of control | endpoint: mean survival time, dose: 300.0 mg/kg/injection, schedule: Q01DX001 (ip), vehicle: saline with Tween-80 103 % of control | [6] 93 % of control

Cc1ccc2c(c1)N(CCCN(C)C)c1ccccc1S2
inactive: endpoint: mean survival time, dose: 22.0 mg/kg/injection, schedule: Q04DX003 (ip), vehicle: saline 105 % of control | endpoint: mean survival time, dose: 33.0 mg/kg/injection, schedule: Q04DX003 (ip), vehicle: saline 97 % of control | endpoint: mean survival time, dose: 50.0 mg/kg/injection, schedule: Q04DX003 (ip), vehicle: saline 105 % of control | endpoint: mean survival time, dose: 75.0 mg/kg/injection, schedule: Q04DX003 (ip), vehicle: saline 103 % of control

CN(C)c1nc(=[N+](C)C)ss1
inactive: [7] 104 % of control | [2] 101 % of control and 107 % of control | [3] 102 % of control | [5] 93 % of control and 107 % of control | [8] 98 % of control | [6] 93 % of control | [9] 90 % of control

Cn1c(/C=C/C(=O)O)cc2ccccc21
inactive: endpoint: mean survival time, dose: 75.0 mg/kg/injection, schedule: Q01DX001 (ip), vehicle: saline 108 % of control | endpoint: mean survival time, dose: 150.0 mg/kg/injection, schedule: Q01DX001 (ip), vehicle: saline 106 % of control | endpoint: mean survival time, dose: 300.0 mg/kg/injection, schedule: Q01DX001 (ip), vehicle: saline 106 % of control

CCOC(Cc1cccc2ccccc12)(c1ccccc1)c1ccccc1
inactive: [3] 101 % of control | [8] 98 % of control | [9] 101 % of control

CC1=C(C)C2(C)C(C)C2(C)C1C (centres undefined)
inactive: [3] 90 % of control | [8] 110 % of control | [9] 98 % of control

CCCCCC(=O)N1CCCC1
inactive: [3] 98 % of control | [8] 98 % of control

O=C(COc1cc(Cl)c(Cl)cc1Cl)OCCN(CCOC(=O)COc1cc(Cl)c(Cl)cc1Cl)C(=O)COc1ccc(Cl)cc1
inactive: endpoint: mean survival time, dose: 100.0 mg/kg/injection, schedule: Q04DX003 (ip), vehicle: other 93 % of control | endpoint: mean survival time, dose: 200.0 mg/kg/injection, schedule: Q04DX003 (ip), vehicle: other 96 % of control | endpoint: mean survival time, dose: 400.0 mg/kg/injection, schedule: Q04DX003 (ip), vehicle: other 107 % of control

Cc1cc(O)c(N=Nc2ccc(C(=O)O)cc2)cc1C
inactive: endpoint: mean survival time, dose: 12.5 mg/kg/injection, schedule: Q01DX009 (ip), vehicle: saline 106 % of control | endpoint: mean survival time, dose: 12.5 mg/kg/injection, schedule: Q01DX009 (ip), vehicle: suspension in saline 97 % of control | endpoint: mean survival time, dose: 25.0 mg/kg/injection, schedule: Q01DX009 (ip), vehicle: saline 110 % of control | endpoint: mean survival time, dose: 25.0 mg/kg/injection, schedule: Q01DX009 (ip), vehicle: suspension in saline 101 % of control | endpoint: mean survival time, dose: 50.0 mg/kg/injection, schedule: Q01DX009 (ip), vehicle: saline 111 % of control | endpoint: mean survival time, dose: 50.0 mg/kg/injection, schedule: Q01DX009 (ip), vehicle: suspension in saline 95 % of control | endpoint: mean survival time, dose: 100.0 mg/kg/injection, schedule: Q01DX009 (ip), vehicle: saline 94 % of control | endpoint: mean survival time, dose: 100.0 mg/kg/injection, schedule: Q01DX009 (ip), vehicle: suspension in saline 94 % of control | endpoint: mean survival time, dose: 200.0 mg/kg/injection, schedule: Q01DX009 (ip), vehicle: suspension in saline 97 % of control | endpoint: mean survival time, dose: 400.0 mg/kg/injection, schedule: Q01DX009 (ip), vehicle: saline 93 % of control | endpoint: mean survival time, dose: 400.0 mg/kg/injection, schedule: Q01DX009 (ip), vehicle: suspension in saline 101 % of control

CCN1/C(=C/c2ccc3ccccc3[n+]2CC)C=Cc2ccccc21
inactive: endpoint: mean survival time, dose: 0.25 mg/kg/injection, schedule: Q01DX001 (ip), vehicle: other 95 % of control | endpoint: mean survival time, dose: 0.5 mg/kg/injection, schedule: Q01DX001 (ip), vehicle: other 97 % of control | endpoint: mean survival time, dose: 1.0 mg/kg/injection, schedule: Q01DX001 (ip), vehicle: other 95 % of control

O=C(COc1ccc(Cl)c(Cl)c1)NCc1ccc(Cl)cc1
inactive: [3] 97 % of control | [8] 95 % of control | [9] 93 % of control

CC1(C)OC2COC3(COC(C)(C)O3)C(OS(C)(=O)=O)C2O1 (centres undefined)
inactive: [2] 102 % of control | [5] 93 % of control | [6] 95 % of control

O=c1ccn(C2CC(O)C(CO)O2)cc1 (centres undefined)
inactive: endpoint: mean survival time, dose: 100.0 mg/kg/injection, schedule: Q01DX005 (ip), vehicle: saline 101 % of control | endpoint: mean survival time, dose: 200.0 mg/kg/injection, schedule: Q01DX005 (ip), vehicle: saline 100 % of control

CC(C)c1nn[nH]n1
inactive: endpoint: median survival time, dose: 50.0 mg/kg/injection, schedule: Q01DX009 (ip), vehicle: saline + alcohol 93 % of control | endpoint: median survival time, dose: 100.0 mg/kg/injection, schedule: Q01DX009 (ip), vehicle: saline + alcohol 91 % of control | endpoint: median survival time, dose: 200.0 mg/kg/injection, schedule: Q01DX009 (ip), vehicle: saline + alcohol 100 % of control | endpoint: median survival time, dose: 400.0 mg/kg/injection, schedule: Q01DX009 (ip), vehicle: saline + alcohol 93 % of control

COc1cc(OC)c(NC(=O)Nc2ccccc2C(N)=O)cc1Cl
inactive: [7] 111 % of control | [2] 96 % of control | [5] 100 % of control

COC1CC(C)C(OC)c2cc(O)cc(c2O)NC(=O)/C(C)=C/C=C\C(C)C(OC(N)=O)/C(C)=C\C(C)C1OC (centres undefined)
inactive: endpoint: median survival time, dose: 1.25 mg/kg/injection, schedule: Q01DX009 (ip), vehicle: saline + alcohol 105 % of control | endpoint: median survival time, dose: 2.5 mg/kg/injection, schedule: Q01DX009 (ip), vehicle: saline + alcohol 105 % of control | endpoint: median survival time, dose: 5.0 mg/kg/injection, schedule: Q01DX009 (ip), vehicle: saline + alcohol 105 % of control | endpoint: median survival time, dose: 10.0 mg/kg/injection, schedule: Q01DX009 (ip), vehicle: saline + alcohol 110 % of control | endpoint: median survival time, dose: 20.0 mg/kg/injection, schedule: Q01DX009 (ip), vehicle: saline + alcohol 107 % of control

COc1ccccc1NC(C)=O
inactive: [2] 96 % of control | [3] 101 % of control | [5] 98 % of control | [8] 96 % of control | [6] 96 % of control | [9] 101 % of control

CCOc1cccc(Cc2cn(Cc3cccc(NC(=O)c4ccc(S(=O)(=O)F)cc4)c3)c(=O)[nH]c2=O)c1
inactive: [1] 100 % of control | [4] 97 % of control
